Consider two compounds from patent US20080207616A1, “Quinoxalines as B Baf Inhhibitors” (AstraZeneca AB, priority 2004, published 2008).

By IC50 is commonly meant the concentration that inhibits the measured activity by half.

In this test the target is T1, human recombinant, purified wild type His-B-Raf protein kinase (Homo sapiens, UniProt P15056).
T1 construct: His
Kind of test: B-Raf In Vitro ELISA Assay. The note with it: phosphorylation of MEK1; 2.5 nM B-Raf, 0.15 μM MEK1, 10 μM ATP; 1 hour preincubation at 25° C. The format is biochemical. Here is the method:
B-Raf In Vitro ELISA Assay
Activity of human recombinant, purified wild type His-B-Raf protein kinase was determined in vitro using an enzyme-linked immunosorbent assay (ELISA) assay format, which measures phosphorylation of the B-Raf substrate, human recombinant, purified His-derived (detagged) MEK1. The reaction utilized 2.5 nM B-Raf, 0.15 μM MEK1 and 10 μM adenosine triphosphate (ATP) in 40 mM N-(2-Hydroxyethyl)piperazine-N′-(2-ethanesulfonic acid hemisodium salt (HEPES), […] 1,4-Dithio-DL-threitol (DTT), 10 mM MgCl2, 1 mM ethylenediaminetetraacetic acid (EDTA) and 0.2 M NaCl (1×HEPES buffer), with or without compound at various concentrations, in a total reaction volume of 25 μl in 384 well plates. B-Raf and compound were preincubated in 1×HEPES buffer for 1 hour at 25° C. Reactions were initiated with addition of MEK1 and ATP in 1× HEPES buffer and incubated at 25° C. for 50 minutes and reactions stopped by addition of 10 μl 75 mM EDTA (final concentration […]) in 1×HEPES buffer. 5 μl of the assay mix was then diluted 1:20 into 50 mM EDTA in 1×HEPES buffer, transferred to 384 well black high protein binding plates and incubated overnight at 4° C. […] Blue fluorescent product was detected at excitation 325 nm and emission 420 nm using a TECAN Ultra plate reader. Data was graphed and IC50s calculated using Excel Fit (Microsoft).
Background: In an ELISA, binding on a coated surface is turned into a signal by an enzyme label.

T1 sequence (P15056 whole entry): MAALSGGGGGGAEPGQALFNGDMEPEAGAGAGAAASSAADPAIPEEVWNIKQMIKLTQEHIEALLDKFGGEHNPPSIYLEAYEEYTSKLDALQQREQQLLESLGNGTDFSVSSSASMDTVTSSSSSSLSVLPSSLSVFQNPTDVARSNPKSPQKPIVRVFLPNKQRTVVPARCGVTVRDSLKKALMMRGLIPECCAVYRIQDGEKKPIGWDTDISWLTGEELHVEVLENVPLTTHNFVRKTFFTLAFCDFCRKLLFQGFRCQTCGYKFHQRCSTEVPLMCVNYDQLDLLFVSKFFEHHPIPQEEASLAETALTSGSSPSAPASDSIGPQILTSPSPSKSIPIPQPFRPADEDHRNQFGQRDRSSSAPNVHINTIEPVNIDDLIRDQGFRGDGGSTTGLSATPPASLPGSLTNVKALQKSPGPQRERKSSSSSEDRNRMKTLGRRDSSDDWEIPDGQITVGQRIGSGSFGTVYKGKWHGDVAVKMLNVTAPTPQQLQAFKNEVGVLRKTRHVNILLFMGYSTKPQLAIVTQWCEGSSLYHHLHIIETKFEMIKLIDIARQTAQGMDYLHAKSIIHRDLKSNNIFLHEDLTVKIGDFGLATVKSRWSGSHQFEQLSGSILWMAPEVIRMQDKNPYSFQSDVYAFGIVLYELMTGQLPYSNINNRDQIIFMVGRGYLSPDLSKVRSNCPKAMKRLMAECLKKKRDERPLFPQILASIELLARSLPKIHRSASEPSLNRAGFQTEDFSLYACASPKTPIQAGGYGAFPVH

As for `CCc1cccc(C(=O)Nc2ccc(C)c(NC(=O)c3ccc4nccnc4c3)c2)c1` [Example 11, N-{5-[(3-Ethylbenzoyl)amino]-2-methylphenyl}quinoxaline-6-carboxamide], the IC50 was 0.742 µM. Regarding `CCCOc1cccc(C(=O)Nc2ccc(C)c(NC(=O)c3ccc4nccnc4c3)c2)c1` [Example 12, N-{2-Methyl-5-[(3-propoxybenzoyl)amino]phenyl}quinoxaline-6-carboxamide], the IC50 was 0.02 µM.
